Measured values from article PMC2690590, “Functional recombinant MHC class II molecules and high-throughput peptide-binding assays” (Immunome Research, 2009).
Where two headings read alike, the source gives them in different places. Where no end group is shown, it is not given here.

Key:
I-E^d = molecular target: T1, I-E^d (Mus musculus, UniProt P01904+P01915); test: Direct LOCI peptide-MHC-II binding assay, I-E^d
T1 construct: I-E^dA1-191LZFos; I-E^dB1-198LZJunBSP; made in house

[1] = molecular target: T2, DR2a (DRA*0101/DRB5*0101) (Homo sapiens, UniProt P01903+Q30154); test: Direct LOCI peptide-MHC-II binding assay, DR2a
T2 construct: DRA*01011-181LZFos; DRB5*01011-190LZJunBSP; made in house

[2] = molecular target: T3, DRB3*0301 (DRA*0101/DRB3*0301) (Homo sapiens, UniProt P01903+P79483, A169T/A212P/D57E/G115V/L67V/Q178H/R103Q/R40L/Y55F); test: Direct LOCI peptide-MHC-II binding assay, DRB3*0301
T3 construct: DRA*01011-181LZFos; DRB3*03011-190LZJunBSP; made in house

DR3 (DRA*0101/DRB1*0301) = molecular target: T4, DR3 (DRA*0101/DRB1*0301) (Homo sapiens, UniProt P01903+P01911, A100K/A102G/A103R/A169T/F55Y/I96L/K41T/L162R/M171V/P40S/Q125H/Q178H/Q39Y/R42S/S66N/T106N/T262R/W38E/Y61H); test: Direct LOCI peptide-MHC-II binding assay, DR3
T4 construct: DRA*01011-181LZFos; DRB1*03011-190LZJunBSP; made in house

[3] = molecular target: DP401 (DPA1*0103/DPB1*0401) (Homo sapiens, UniProt P04440+P20036); test: Direct LOCI peptide-MHC-II binding assay, DP401
DR4 (DRA*0101/DRB1*0401) = molecular target: T5, DR4 (DRA*0101/DRB1*0401) (Homo sapiens, UniProt P01903+P01911, A100K/A169T/F76Y/I96L/K127E/L162R/M171V/N62H/P40V/Q125Y/R42H/S133A/S149N/S66Y/V115G/V209L/W38E); test: Direct LOCI peptide-MHC-II binding assay, DR4
T5 construct: DRA*01011-181LZFos; DRB1*04011-190LZJunBSP; made in house

[4] = molecular target: T2, DR2a (DRA*0101/DRB5*0101); test: Competitive LOCI peptide-MHC-II binding assay, DR2a
[5] = molecular target: T6, DRB1*0813 (DRA*0101/DRB1*0813) (Homo sapiens, UniProt P01903+P01911, A100R/A103L/A169T/F76Y/H45Y/I96L/K41T/L162R/M171V/P40S/Q125H/Q178H/Q39Y/Q99D/R218S/R42G/S66Y/V115G/W38E); test: Direct LOCI peptide-MHC-II binding assay, DRB1*0813
T6 construct: DRA*01011-181LZFos; DRB1*08131-190LZJunBSP; made in house

[6] = pH 7, 48 h 18°C, read-out: DRB3*0301 affinity
[7] = pH 6-7, 48 h 18°C, read-out: DR3 affinity

GVTYEIDLTNKN [Mycobact leprea]
Kd (I-E^d; I-E^D affinity (nM)): > 5000 nM | Kd [1]: > 5 µM | Kd [2]: > 5 µM | Kd (DR3 (DRA*0101/DRB1*0301)): 4.35 µM | Kd ([3]; DP401 affinity (nM)): > 5000 nM | Kd (DR4 (DRA*0101/DRB1*0401); DR4 affinity (nM)): 2550 nM | IC50 ([4]; DR2a Komp IC50 (nM)): > 5000 nM | Kd [5]: > 5 µM

RMIAISAKV [Pox.o42.con.im. A2]
Kd (I-E^d; 48 h 18°C, read-out: I-E^D affinity): > 5000 nM | Kd ([1]; pH 6, 48 h 18°C, read-out: DR2a pH6 affinity): 1.65 µM | Kd [2, 6]: 1.26 µM | Kd (DR3 (DRA*0101/DRB1*0301); [7]): 0.516 µM | Kd ([3]; pH 7, 48 h 18°C, read-out: DP401 affinity): > 5000 nM | Kd (DR4 (DRA*0101/DRB1*0401); pH 6-7.5, 48 h 18°C, read-out: DR4 affinity): > 5000 nM | IC50 ([4]; pH 6-7.5, 48 h 18°C, read-out: DR2a Komp IC50): 1990 nM | Kd ([5]; pH 6-7.5, 48 h 18°C, read-out: DRB1*0813 affinity): 0.267 µM

CC[C@H](C)[C@H](NC(=O)[C@H](Cc1ccccc1)NC(=O)[C@@H]1CCCN1C(=O)[C@@H](N)Cc1ccc(O)cc1)C(=O)N[C@@H](CCC(=O)O)C(=O)N[C@@H](CCC(N)=O)C(=O)N[C@@H](CCC(=O)O)C(=O)NCC(=O)N1CCC[C@H]1C(=O)N[C@@H](CCC(=O)O)C(=O)N[C@@H](Cc1ccccc1)C(=O)N[C@@H](Cc1ccccc1)C(=O)N[C@@H](CC(=O)O)C(=O)N[C@@H](CCC(N)=O)C(=O)N[C@@H](CCC(=O)O)C(=O)O
Kd (I-E^d; I-E^D affinity (nM)): > 5000 nM | Kd [1]: > 5 µM | Kd [2, 6]: 3.23 µM | Kd (DR3 (DRA*0101/DRB1*0301); [7]): 0.289 µM | Kd ([3]; DP401 affinity (nM)): > 5000 nM | IC50 ([4]; DR2a Komp IC50 (nM)): > 5000 nM | Kd [5]: > 5 µM

CC[C@H](C)[C@H](NC(=O)[C@H](Cc1c[nH]cn1)NC(=O)[C@H](Cc1c[nH]cn1)NC(=O)[C@H](Cc1c[nH]cn1)NC(=O)[C@H](Cc1c[nH]cn1)NC(=O)[C@H](Cc1c[nH]cn1)NC(=O)[C@H](Cc1c[nH]cn1)NC(=O)[C@@H](N)Cc1ccc(O)cc1)C(=O)N[C@@H](CCC(=O)O)C(=O)NCC(=O)N[C@@H](CCCNC(=N)N)C(=O)N[C@@H](CO)C(=O)N[C@@H](Cc1ccccc1)C(=O)N[C@@H](CCC(=O)O)C(=O)N[C@@H](CCCNC(=N)N)C(=O)N[C@@H](Cc1ccccc1)C(=O)N[C@@H](CCC(=O)O)C(=O)N[C@H](C(=O)N[C@@H](Cc1ccccc1)C(=O)N1CCC[C@H]1C(=O)N[C@@H](CCCCN)C(=O)N[C@@H](CCC(=O)O)C(=O)O)[C@@H](C)CC [6xH Influenza A (PR8) HA 109–119]
Kd (I-E^d): 984 nM | Kd [1]: 0.009 µM | Kd [2]: 1.53 µM | Kd (DR3 (DRA*0101/DRB1*0301)): 1.43 µM | Kd [3]: 1 nM | Kd (DR4 (DRA*0101/DRB1*0401)): 1870 nM | IC50 [4]: 23 nM | Kd [5]: 0.181 µM

CC[C@H](C)[C@H](N)C(=O)N[C@H](C(=O)N[C@@H](Cc1ccccc1)C(=O)N[C@@H](CCSC)C(=O)N[C@@H](Cc1c[nH]c2ccccc12)C(=O)N[C@@H](C)C(=O)N[C@H](C(=O)N[C@@H](Cc1c[nH]cn1)C(=O)N[C@@H](Cc1c[nH]cn1)C(=O)O)[C@@H](C)CC)C(C)C [Flu HA1194-202]
Kd (I-E^d): > 5000 nM | Kd [1]: 0.167 µM | Kd [2]: > 5 µM | Kd (DR3 (DRA*0101/DRB1*0301)): > 5 µM | Kd [3]: > 5000 nM | Kd (DR4 (DRA*0101/DRB1*0401)): > 5000 nM | IC50 [4]: 529 nM | Kd [5]: 0.276 µM

CSCC[C@H](NC(=O)[C@@H](N)Cc1ccccc1)C(=O)N[C@@H](CO)C(=O)N[C@@H](CCCNC(=N)N)C(=O)N[C@@H](CCCCN)C(=O)N[C@@H](CC(C)C)C(=O)N[C@@H](Cc1c[nH]cn1)C(=O)N[C@@H](CCCNC(=N)N)C(=O)N[C@@H](Cc1ccc(O)cc1)C(=O)O [Hantaan]
Kd (I-E^d): 3 nM | Kd [1]: > 5 µM | IC50 [4]: 2550 nM

WMARRHAER [Brucella]
Kd (I-E^d): 6 nM | Kd [1]: > 5 µM | IC50 [4]: > 5000 nM

FLYGALLLA [MBP]
Kd (I-E^d; I-E^D affinity (nM)): > 5000 nM | Kd [1]: > 5 µM | Kd (DR3 (DRA*0101/DRB1*0301)): > 5 µM | Kd ([3]; DP401 affinity (nM)): 34 nM | Kd (DR4 (DRA*0101/DRB1*0401); DR4 affinity (nM)): > 5000 nM | IC50 ([4]; DR2a Komp IC50 (nM)): > 5000 nM | Kd [5]: > 5 µM

YLFFYRKSV [TERT572Y]
Kd (I-E^d; I-E^D affinity (nM)): 322 nM | Kd [1]: 2.65 µM | Kd (DR3 (DRA*0101/DRB1*0301)): > 5 µM | Kd ([3]; DP401 affinity (nM)): > 5000 nM | Kd (DR4 (DRA*0101/DRB1*0401); DR4 affinity (nM)): 1590 nM | IC50 ([4]; DR2a Komp IC50 (nM)): > 5000 nM | Kd [5]: 0.095 µM
